Data: patent US20240409519A1, “HYDROGENATED QUINOXALINES” (OTSUKA PHARMACEUTICAL CO., LTD., priority 2021, published 2024)

What was measured:
[1] = molecular target: T1, norepinephrine (NE) uptake (Rattus norvegicus, UniProt Q63380); assay: Norepinephrine (NE) uptake inhibitory activity using rat brain synaptosome; format: biochemical; details: rat hippocampus synaptosome, tritium-labeled NE 12 nM; read-out: IC50 (nM), norepinephrine (NE) uptake inhibition
T1 construct: used as crude synaptosomal fraction; from tissue; host or cells: rat hippocampus, crude synaptosomal fraction
T1 sequence (Q63380 1-617): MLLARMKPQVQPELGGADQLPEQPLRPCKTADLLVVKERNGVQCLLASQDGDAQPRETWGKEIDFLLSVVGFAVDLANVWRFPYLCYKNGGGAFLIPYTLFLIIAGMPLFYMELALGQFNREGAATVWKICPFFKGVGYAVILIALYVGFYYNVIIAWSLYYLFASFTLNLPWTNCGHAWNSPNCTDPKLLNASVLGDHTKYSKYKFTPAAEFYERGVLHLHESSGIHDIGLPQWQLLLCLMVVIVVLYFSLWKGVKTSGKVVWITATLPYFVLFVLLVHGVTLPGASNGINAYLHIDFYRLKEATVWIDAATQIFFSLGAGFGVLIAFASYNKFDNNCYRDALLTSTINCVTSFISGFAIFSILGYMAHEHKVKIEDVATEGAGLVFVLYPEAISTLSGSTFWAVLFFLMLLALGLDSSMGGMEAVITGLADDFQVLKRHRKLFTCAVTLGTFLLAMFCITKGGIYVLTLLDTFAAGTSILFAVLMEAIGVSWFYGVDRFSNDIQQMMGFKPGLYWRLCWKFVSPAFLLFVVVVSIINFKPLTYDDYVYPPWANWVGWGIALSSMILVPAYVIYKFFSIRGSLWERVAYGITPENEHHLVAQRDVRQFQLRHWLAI
Experimental: (§1) Male Wistar rats were decapitated, each brain was removed, and the hippocampus was cut out. […] The homogenate was centrifuged at 1000 g at 4° C. for 10 minutes, and the supernatant was further centrifuged at 20000 g at 4° C. for 20 minutes. The pellet was suspended in an incubation buffer (20 mM Hepes buffer (pH 7.4) containing 10 mM glucose, 145 mM sodium chloride, 4.5 mM potassium chloride, 1.2 mM magnesium chloride and 1.5 mM calcium chloride) and used as crude synaptosomal fraction.
Each well of a 96-well round-bottom plate was used for the uptake reaction in a total volume of 200 μL solution containing purgurin (final concentration 10 μM) and ascorbic acid (final concentration 0.2 mg/mL).
After 10 minutes, the uptake reaction was terminated by suction filtration onto a 96-well glass fiber filter plate. The filters were rinsed with cold physi-ological saline solution, dried thoroughly, and micro scintillation 0 (Perkin-Elmer) was added thereto. Then, the residual radioactivity on the filters was measured.
The uptake value when only solvent was added was set as 100%, the uptake value when unlabeled NE (final concentration 10 μM) was added as 0% (nonspecific uptake value), and the 50% inhibitory concentration was calculated from the concentration of the test compound and its inhibitory activity.

[2] = Metabolic stability test (human liver microsome, hepatic intrinsic clearance); format: in vitro ADME; details: human liver microsomes, pH 7.4; human liver microsome 0.2 mg/mL, test compound 0.001 mmol/L, 37° C., 0, 10 and 20 minutes
Experimental: A metabolic reaction was initiated by adding and mixing a test compound solution (final concentration 0.001 mmol/L) and a NADH/NADPH solution (final concentration 1 mmol/L) to a human liver microsome solution (final concentration 100 mmol/L potassium phosphate buffer solution (pH 7.4), 5 mmol/L magnesium chloride, 0.2 mg/ml, human liver microsome). A solution of the internal standard in methanol was prepared and used as a quenching solution.
Specifically, a metabolic reaction was initiated by adding and mixing 2.5 μL of a solution of a test compound in acetonitrile to 222.5 μL of a human liver microsome solution in ice water, followed by preincubation at 37° C. for 1 minute, and then adding 25 μL of a NADH/NADPH solution thereto.
The mixture was centrifuged (6130 g, 4° C., 10 minutes) and the supernatant was used as a sample for LC-MS/MS.
Peak area ratio ([peak area of test compound]/[peak area of internal standard]) was calculated for the test compound and the internal standard.
The residual ratio of the test compound was calculated from ([Ratio of peak areas at each reaction time]/[Ratio of peak areas at 0 minute reaction time]).

CYP3A4 = molecular target: T2, CYP3A4 (Homo sapiens, UniProt P08684); assay: CYP inhibition test (1): inhibition rate (%) at one concentration, CYP3A4; format: in vitro ADME; details: human liver microsomes, pH 7.4, probe midazolam (0.005 mmol/L); test compound 0.01 mmol/L, human liver microsome 0.1 mg/mL, substrate midazolam, 37° C. 10 minutes; read-out: inhibition rate (%) 3A4
T2 construct: a human liver microsome solution containing three CYP-specific substrates; from tissue; host or cells: human liver microsomes
T2 sequence (P08684 whole entry): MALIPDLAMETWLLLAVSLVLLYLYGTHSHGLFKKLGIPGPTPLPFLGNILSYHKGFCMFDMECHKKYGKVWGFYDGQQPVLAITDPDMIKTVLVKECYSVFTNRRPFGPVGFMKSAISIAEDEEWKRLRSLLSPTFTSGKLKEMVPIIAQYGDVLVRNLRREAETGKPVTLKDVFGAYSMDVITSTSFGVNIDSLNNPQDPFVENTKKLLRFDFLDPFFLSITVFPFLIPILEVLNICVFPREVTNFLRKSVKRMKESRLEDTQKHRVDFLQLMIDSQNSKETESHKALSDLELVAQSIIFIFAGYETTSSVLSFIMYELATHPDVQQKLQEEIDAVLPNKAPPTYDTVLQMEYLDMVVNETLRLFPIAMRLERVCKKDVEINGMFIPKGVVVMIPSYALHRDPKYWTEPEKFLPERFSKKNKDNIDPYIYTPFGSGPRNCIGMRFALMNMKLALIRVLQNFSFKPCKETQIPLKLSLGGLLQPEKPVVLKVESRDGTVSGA
Experimental: (§2) A metabolic reaction was initiated by adding and mixing a test compound solution (final concentration 0.01 mmol/L) and a NADH/NADPH solution (final concentration 1 mmol/L) to a human liver microsome solution containing three CYP-specific substrates (final concentration 100 mmol/L potassium phosphate buffer solution (pH 7.4), 5 mmol/L magnesium chloride, 0.1 mg/mL human liver microsome, 0.005 mmol/L diclofenac (for CYP2C9), 0.01 mmol/L bufuralol (for […]), 0.005 mmol/L midazolam (for CYP3A4)). As an internal standard solution, a solution of each of stable isotopes of the metabolites (50 ng/mL [13C6] hydroxy diclofenac, 5 ng/mL [2H9] hydroxy bufuralol, and 5 ng/mL [13C6] hydroxy midazolam (all stable isotopes)) in methanol was prepared and used as a quenching solution.
(§3) Specifically, a metabolic reaction was initiated by adding and mixing 2 μL of a solution of a test compound in acetonitrile (or acetonitrile as a control) to 178 μL of a human liver microsome solution in ice water, followed by preincubation at 37° C. for 1 minute, and then adding 20 μL of a NADH/NADPH solution thereto. After incubation at 37° C. for 10 minutes, 50 μL of the reaction mixture was taken, and then it was added and mixed to 500 μL of a quenching solution to quech the reaction. The mixture was centrifuged (6130 g, 4° C., 10 minutes) and the supernatant was used as a sample for LC-MS/MS.
(§4) Peak area ratio ([peak area of metabolite]/[peak area of corresponding stable isotope]) was calculated for a metabolite and a stable isotope of the metabolite as measurement object. By comparing the peak area ratio of each test compound solution with that of the control, the inhibition rate (%) of each CYP species for each test compound was calculated from (1-[peak area ratio of each test compound solution]/[peak area ratio of control])×100.

dopamine (DA) uptake = molecular target: T3, dopamine (DA) uptake (Rattus norvegicus, UniProt P23977); assay: Dopamine (DA) uptake inhibitory activity using rat brain synaptosome; format: biochemical; details: rat striatum synaptosome, tritium-labeled DA 2 nM; read-out: IC50 (nM), dopamine (DA) uptake inhibition
T3 construct: used as crude synaptosomal fraction; from tissue; host or cells: rat striatum, crude synaptosomal fraction
T3 sequence (P23977 whole entry): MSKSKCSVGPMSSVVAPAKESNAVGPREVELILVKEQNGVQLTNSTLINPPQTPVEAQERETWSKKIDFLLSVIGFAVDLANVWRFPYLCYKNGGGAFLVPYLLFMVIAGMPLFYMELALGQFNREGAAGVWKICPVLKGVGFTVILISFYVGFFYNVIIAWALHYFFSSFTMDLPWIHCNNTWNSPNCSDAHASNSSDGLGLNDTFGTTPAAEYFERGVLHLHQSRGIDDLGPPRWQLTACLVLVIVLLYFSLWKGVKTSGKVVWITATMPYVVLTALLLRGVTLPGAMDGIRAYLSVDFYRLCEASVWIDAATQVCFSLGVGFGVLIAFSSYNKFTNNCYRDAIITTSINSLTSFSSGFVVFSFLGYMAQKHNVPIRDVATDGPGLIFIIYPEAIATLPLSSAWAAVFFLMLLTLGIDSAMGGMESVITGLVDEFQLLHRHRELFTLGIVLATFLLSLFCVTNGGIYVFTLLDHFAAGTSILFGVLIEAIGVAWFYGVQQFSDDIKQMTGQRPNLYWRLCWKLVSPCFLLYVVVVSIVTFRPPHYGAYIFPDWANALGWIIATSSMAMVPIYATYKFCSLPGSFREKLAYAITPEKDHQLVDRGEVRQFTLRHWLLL
Experimental: as §1, with “striatum” for “hippocampus”
Each well of a 96-well round-bottom plate was used for the uptake reaction in a total volume of 200 μl solution containing purgurin (final concentration 10 μM) and ascorbic acid (final concentration 0.2 mg/mL). In other words, solvent, unlabeled DA or step-diluted test compound was added to each well, and one-tenth of the final volume of the synaptosomal fraction was added to each well, followed by pre-incubation at 37° C. for 10 minutes, and then tritium-labeled DA solution (final concentration 2 nM) was added and the uptake reaction was initiated at 37° C. After 10 minutes, the uptake reaction was terminated by suction filtration onto a 96-well glass fiber filter plate. The filters were rinsed with cold physi-ological saline solution, dried thoroughly, and micro scintillation 0 (Perkin-Elmer) was added thereto. Then, the residual radioactivity on the filters was measured.
The uptake value when only solvent was added was set as 100%, the uptake value when unlabeled DA (final concentration 10 μM) was added as 0% (nonspecific uptake value), and the 50% inhibitory concentration was calculated from the concentration of the test compound and its inhibitory activity.

CYP2D6 = molecular target: T4, CYP2D6 (Homo sapiens, UniProt P10635); assay: CYP inhibition test (1): inhibition rate (%) at one concentration, CYP2D6; format: in vitro ADME; details: human liver microsomes, pH 7.4, probe bufuralol (0.01 mmol/L); test compound 0.01 mmol/L, human liver microsome 0.1 mg/mL, substrate bufuralol, 37° C. 10 minutes; read-out: inhibition rate (%) 2D6
T4 construct: a human liver microsome solution containing three CYP-specific substrates; from tissue; host or cells: human liver microsomes
T4 sequence (P10635 whole entry): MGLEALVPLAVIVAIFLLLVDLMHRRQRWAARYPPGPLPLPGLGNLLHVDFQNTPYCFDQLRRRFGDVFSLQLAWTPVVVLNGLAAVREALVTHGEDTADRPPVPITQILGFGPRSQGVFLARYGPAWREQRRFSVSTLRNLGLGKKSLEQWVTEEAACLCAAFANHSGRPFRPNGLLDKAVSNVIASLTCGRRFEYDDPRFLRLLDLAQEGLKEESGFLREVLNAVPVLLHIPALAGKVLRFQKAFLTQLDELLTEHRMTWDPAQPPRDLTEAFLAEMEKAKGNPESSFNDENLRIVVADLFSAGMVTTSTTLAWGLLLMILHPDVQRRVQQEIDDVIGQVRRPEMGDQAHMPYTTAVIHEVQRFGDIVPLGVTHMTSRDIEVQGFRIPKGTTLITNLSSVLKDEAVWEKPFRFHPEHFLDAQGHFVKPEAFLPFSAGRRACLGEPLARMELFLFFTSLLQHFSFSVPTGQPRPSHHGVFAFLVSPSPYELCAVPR
Experimental: as §2, §3, §4

Structure (SMILES)	IC50 [1]	microsomal CLint at 0.001 mmol/L [2]	inhibition at 10 min, 0.01 mmol/L (CYP3A4)	IC50 (dopamine (DA) uptake)	inhibition at 10 min, 0.01 mmol/L (CYP2D6)
OCCOc1c(F)cc(N2CC3(CCC3)N[C@H]3CCCC[C@@H]32)cc1Cl [Example 6]	8.4 nM	< 50 µL/min/mg	23.3%	5.8 nM	15%
OCCOc1ccc(N2CC3(CCC3)N[C@H]3CCCC[C@@H]32)cc1 [Example 8]	37.2 nM	< 50 µL/min/mg	7.1%	49.5 nM	20.1%
COc1cc(N2CC3(CCC3)N[C@H]3CCCC[C@@H]32)ccc1OCCO [Example 11]	91 nM	< 50 µL/min/mg	-1.3%	97.9 nM	14.2%
Cc1cc(N2CC3(CCC3)N[C@H]3CCCC[C@@H]32)cc(F)c1OCCO [Example 14]	8.5 nM	< 50 µL/min/mg	14.4%	5.5 nM	20.5%
C[C@@H]1CN(c2cc(F)c(OCCO)c(Cl)c2)[C@H]2CCCC[C@@H]2N1 [Example 17, 2-(2-chloro-6-fluoro-4-((3R,4aS,8aS)-3-methyloctahydroquinoxalin-1(2H)-yl)phenoxy)ethan-1-ol 1/2fumarate]	2.7 nM	< 50 µL/min/mg		7.6 nM	
C[C@H]1CN(c2cc(F)c(OCCO)c(Cl)c2)[C@H]2CCCC[C@H]2N1 [Example 18]	13.3 nM	< 50 µL/min/mg		42.9 nM	
C[C@@H]1CN(c2ccc(OC(F)(F)CO)c(Cl)c2)[C@H]2CCCC[C@@H]2N1 [Example 19]	2.4 nM	< 50 µL/min/mg	16.1%	47.4 nM	5.9%
CC1(C)CN(c2ccc(OC(F)(F)CO)cc2)[C@H]2CCCC[C@@H]2N1 [Example 20, 2-(4-((4aS,8aS)-3,3-dimethyloctahydroquinoxalin-1(2H)-yl)phenoxy)-2,2-difluoroethan-1-ol]	4.4 nM	< 50 µL/min/mg		90.9 nM	
CC1(C)CN(c2ccc(OC(F)(F)CO)cc2)[C@@H]2CCCC[C@H]2N1 [Example 21]	69 nM	< 50 µL/min/mg		199 nM	
COc1cc(N2CC(C)(C)N[C@H]3CCCC[C@@H]32)ccc1OC(F)(F)CO [Example 26]	21.3 nM	< 50 µL/min/mg		213 nM	
CC1(C)CN(c2ccc(OCCO)c(Cl)c2)[C@H]2CCCC[C@@H]2N1 [Example 27, 2-(2-chloro-4-((4aS,8aS)-3,3-dimethyloctahydroquinoxalin-1(2H)-yl)phenoxy)ethan-1-ol]	7.7 nM	< 50 µL/min/mg		99 nM	
CC1(C)CN(c2ccc(OCCO)c(Cl)c2)[C@@H]2CCCC[C@H]2N1 [Example 28]	9.7 nM	< 50 µL/min/mg		76.5 nM	
Cc1cc(N2CC(C)(C)N[C@H]3CCCC[C@@H]32)ccc1OC(F)(F)CO [Example 31]	5.5 nM	< 50 µL/min/mg		56.4 nM	
Cc1cc(N2CC(C)(C)N[C@@H]3CCCC[C@H]32)ccc1OC(F)(F)CO [Example 32]	7.5 nM	< 50 µL/min/mg		60.7 nM	
CC1(C)CN(c2cc(F)c(OCCO)c(F)c2)[C@H]2CCCC[C@@H]2N1 [Example 34, 2-(4-((4aS,8aS)-3,3-dimethyloctahydroquinoxalin-1(2H)-yl)-2,6-difluorophenoxy)ethan-1-ol]	5.9 nM	< 50 µL/min/mg		73.2 nM	
CC1(C)CN(c2cc(F)c(OCCO)c(F)c2)[C@@H]2CCCC[C@H]2N1 [Example 35]	6.8 nM	< 50 µL/min/mg		59.7 nM	
CC1(C)CN(c2cc(F)c(OCCO)c(F)c2)[C@H]2CCCC[C@H]2N1 [Example 36]	5.1 nM	< 50 µL/min/mg		25.6 nM	
CN1[C@H]2CCCC[C@@H]2N(c2ccc(OC(F)(F)CO)cc2)CC1(C)C [Example 37, 2,2-difluoro-2-(4-((4aS,8aS)-3,3,4-trimethyloctahydroquinoxalin-1(2H)-yl)phenoxy)ethan-1-ol]	34.5 nM	< 50 µL/min/mg		81.9 nM	
CC1(C)CN(c2ccc(OCCO)c(Cl)c2)[C@H]2CCCC[C@H]2N1 [Example 44, 2-(2-chloro-4-((4aR,8aS)-3,3-dimethyloctahydroquinoxalin-1(2H)-yl)phenoxy)ethan-1-ol 1/2fumarate]	5.2 nM	< 50 µL/min/mg	-10.7%	37.5 nM	10.2%
Cc1cc(N2CC(C)(C)N[C@@H]3CCCC[C@@H]32)ccc1OC(F)(F)CO [Example 48]	6.6 nM	< 50 µL/min/mg	-9.2%	68.6 nM	-7.8%
CC1(C)CN(c2ccc(OCCO)c3occc23)[C@@H]2CCCC[C@@H]2N1 [Example 50]	5.8 nM	< 50 µL/min/mg	2%	214 nM	41.8%
CC1(C)CN(c2ccc(OCCO)c3occc23)[C@H]2CCCC[C@H]2N1 [Example 51]	4.3 nM	< 50 µL/min/mg	1.1%	41.1 nM	17%
